Each molecule was assayed against Neuronal acetylcholine receptor; alpha4/beta2 (Rattus norvegicus, UniProt P09483+P12390) (assay: In vitro binding affinity towards (alpha-4)2(beta-2)3 neuronal nicotinic acetylcholine receptor in P2 membrane fractions of rat forebrain).
Neuronal acetylcholine receptor; alpha4/beta2, sequence (P09483 whole entry): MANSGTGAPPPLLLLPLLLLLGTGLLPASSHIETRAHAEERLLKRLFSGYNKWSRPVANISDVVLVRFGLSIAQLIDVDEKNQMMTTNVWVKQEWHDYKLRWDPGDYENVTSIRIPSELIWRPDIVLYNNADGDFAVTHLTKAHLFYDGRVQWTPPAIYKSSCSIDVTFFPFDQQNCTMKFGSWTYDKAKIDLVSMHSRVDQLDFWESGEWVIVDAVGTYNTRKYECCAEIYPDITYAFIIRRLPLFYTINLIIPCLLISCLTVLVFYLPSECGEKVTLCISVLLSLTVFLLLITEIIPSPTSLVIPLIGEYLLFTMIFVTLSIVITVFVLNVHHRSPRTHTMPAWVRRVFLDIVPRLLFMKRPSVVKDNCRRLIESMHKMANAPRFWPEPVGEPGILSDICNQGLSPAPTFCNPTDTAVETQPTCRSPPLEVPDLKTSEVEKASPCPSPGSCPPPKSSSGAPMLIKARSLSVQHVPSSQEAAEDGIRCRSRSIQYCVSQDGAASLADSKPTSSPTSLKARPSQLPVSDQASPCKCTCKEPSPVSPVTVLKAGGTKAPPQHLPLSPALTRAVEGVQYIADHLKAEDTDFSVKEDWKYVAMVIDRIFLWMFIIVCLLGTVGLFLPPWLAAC
Neuronal acetylcholine receptor; alpha4/beta2, sequence (P12390 whole entry): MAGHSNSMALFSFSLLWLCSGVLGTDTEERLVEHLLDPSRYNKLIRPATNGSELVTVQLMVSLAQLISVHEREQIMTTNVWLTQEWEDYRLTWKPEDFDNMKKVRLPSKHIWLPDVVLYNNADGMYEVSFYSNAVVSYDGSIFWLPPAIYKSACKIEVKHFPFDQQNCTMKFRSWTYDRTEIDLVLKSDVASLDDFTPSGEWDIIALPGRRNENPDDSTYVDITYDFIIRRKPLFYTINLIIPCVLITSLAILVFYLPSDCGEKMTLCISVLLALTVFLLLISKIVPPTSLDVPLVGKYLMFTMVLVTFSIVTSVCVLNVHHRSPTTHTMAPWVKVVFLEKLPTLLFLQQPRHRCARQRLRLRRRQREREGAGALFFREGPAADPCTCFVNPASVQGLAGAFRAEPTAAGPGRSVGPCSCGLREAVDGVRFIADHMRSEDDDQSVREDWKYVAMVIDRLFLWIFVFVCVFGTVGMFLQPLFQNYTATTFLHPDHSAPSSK
Type: cell membranes
With O=c1c(I)cc(I)c2n1CC1CNCC2C1 (centres undefined) the Ki was 0.525 nM.
In the case of CN1C2CC=C(c3ccc(Cl)nc3)C1CC2 (centres undefined), the Ki is reported as 8.91 nM.
CN1C2CCC1C(c1ccc(Cl)nc1)C2 (centres undefined) gave a Ki of 0.0269 nM.
Molecule C1=C(c2cnccn2)CC2CCC1N2 (centres undefined) has a Ki of 30.9 nM.
O=c1c(Br)cc(Br)c2n1CC1CNCC2C1 (centres undefined) showed a Ki of 10.7 nM.
For CN1C2CCC1CN(c1ccc(Cl)nn1)CC2 (centres undefined), the Ki was 0.55 nM.
For CN1C2CCC1CN(c1cncnc1)CC2 (centres undefined), the Ki was 2.09 nM.
CN1C2CCC1C(c1ccc(F)nc1)C2 (centres undefined) showed a Ki of 0.0282 nM.
C1=C(c2cnccn2)C2CCC(CC1)N2 (centres undefined) was tested, and the Ki was 12 nM.
Molecule O=c1ccc(I)c2n1CC1CNCC2C1 (centres undefined) has a Ki of 0.229 nM.
S=c1cccc2n1CC1CNCC2C1 (centres undefined) was tested, and the Ki was 0.832 nM.
Molecule c1nncc2c1CC1CCC2N1 (centres undefined) has a Ki of 75.9 nM.
Work on O=c1ccc(Cl)c2n1CC1CNCC2C1 (centres undefined) yielded a Ki of 2.51 nM.
For C1=C(c2cncnc2)C2CCC(C1)N2 (centres undefined), the Ki was 3.72 nM.
Work on Brc1ccc(C2CC3CCC2N3)cn1 (centres undefined) yielded a Ki of 0.0447 nM.
Work on CC(=O)C1=CCC2CCC1N2 (centres undefined) yielded a Ki of 93.3 nM.
Molecule C1=C(c2ccnnc2)C2CCC(CC1)N2 (centres undefined) has a Ki of 19.1 nM.
With C1=C(c2ccnnc2)CC2CCC1N2 (centres undefined) the Ki was 10 nM.
With c1ncc2c(n1)CC1CCC2N1 (centres undefined) the Ki was 676 nM.
Work on CN(C)C(=O)C1=CCC2CCC1N2 (centres undefined) yielded a Ki of 61700 nM.
Clc1nccnc1C1=CC2CCC(C1)N2 (centres undefined) gave a Ki of 209 nM.
With C1=C(c2cncnc2)C2CCN1CC2 the Ki was 12.3 nM.
Work on Clc1ccc(C2=CN3CCC2CC3)cn1 yielded a Ki of 2.29 nM.
Work on O=c1c(Br)ccc2n1CC1CNCC2C1 (centres undefined) yielded a Ki of 0.01 nM.
Work on CN1C2CC=C(c3cncnc3)C1CC2 (centres undefined) yielded a Ki of 12.6 nM.
C1=C(c2ccnnc2)C2CCC(C1)N2 (centres undefined) was tested, and the Ki was 7.94 nM.
In the case of CC(=O)C1=CCC2CCC1N2C (centres undefined), the Ki is reported as 120 nM.
CN(C)C(=S)C1=CCC2CCC1N2 (centres undefined) showed a Ki of 2450 nM.
In the case of COC(=O)C1=C(c2cccnc2)CC2CCC1N2C (centres undefined), the Ki is reported as 4900 nM.
Work on Clc1ncc(C2=CCC3CCC2N3)cn1 (centres undefined) yielded a Ki of 2 nM.
For O=c1ccc(Br)c2n1CC1CNCC2C1 (centres undefined), the Ki was 0.309 nM.
CN1C2CC=C(c3cccnc3)C1CC2 (centres undefined) gave a Ki of 9.55 nM.
C1=C(c2cccnc2)C2CCC(CC1)N2 (centres undefined) was tested, and the Ki was 0.0513 nM.
Molecule Ic1ccc(C2CC3CCC2N3)cn1 (centres undefined) has a Ki of 0.0251 nM.
Fc1ccc(C2CC3CCC2N3)cn1 (centres undefined) was tested, and the Ki was 0.0282 nM.
Work on CN1C2CCC1CN(c1ccnnc1)CC2 (centres undefined) yielded a Ki of 0.525 nM.
CN1C2CCC1CN(c1ccc(Cl)nc1)CC2 (centres undefined) gave a Ki of 0.871 nM.
With CN(C)C(=S)C1=CCC2CCC1N2C (centres undefined) the Ki was over 20000 nM.
In the case of Clc1nccnc1C1=CCC2CCC1N2 (centres undefined), the Ki is reported as 4170 nM.
With C1=C(c2cncnc2)CC2CCC1N2 (centres undefined) the Ki was 0.661 nM.
In the case of Clc1ncc(C2=CCCC3CCC2N3)cn1 (centres undefined), the Ki is reported as 0.151 nM.
Molecule C1=C(c2cccnc2)CC2CCC1N2 (centres undefined) has a Ki of 0.257 nM.
Clc1ncc(C2=CC3CCC(C2)N3)cn1 (centres undefined) was tested, and the Ki was 0.708 nM.
CN1C2CCC1C(c1ccc(Br)nc1)C2 (centres undefined) was tested, and the Ki was 0.0363 nM.
For O=c1c(I)ccc2n1CC1CNCC2C1 (centres undefined), the Ki was 0.017 nM.
Work on C1=C(c2cccnc2)C2CCC(C1)N2 (centres undefined) yielded a Ki of 1.58 nM.
In the case of Cc1cc(C2=CCC3CCC2N3C)on1 (centres undefined), the Ki is reported as 31.6 nM.
With C1=C(c2cnccn2)C2CCC(C1)N2 (centres undefined) the Ki was 398 nM.
Work on CN1C2C=C(c3ccc(Cl)nc3)CC1CC2 (centres undefined) yielded a Ki of 1.55 nM.
C1=C(c2cncnc2)C2CCC(CC1)N2 (centres undefined) gave a Ki of 0.141 nM.
Molecule c1nncc2c1CCC1CCC2N1 (centres undefined) has a Ki of 34.7 nM.
CN(C)C(=O)C1=CCC2CCC1N2C (centres undefined) was tested, and the Ki was 2000 nM.
Molecule O=c1c(Cl)ccc2n1CC1CNCC2C1 (centres undefined) has a Ki of 0.0224 nM.
With COC(=O)C1=C(c2cncnc2)CC2CCC1N2C (centres undefined) the Ki was 214 nM.
Work on C1=C(c2cccnc2)C2CCN1CC2 yielded a Ki of 7.59 nM.
Work on CN1C2CCC1CN(c1cnccn1)CC2 (centres undefined) yielded a Ki of 263 nM.
With COC(=O)C1=C(c2ccc(Cl)nc2)CC2CCC1N2C (centres undefined) the Ki was 1660 nM.
O=c1c(Cl)cc(Cl)c2n1CC1CNCC2C1 (centres undefined) was tested, and the Ki was 2.51 nM.
For CN1CC2CC(C1)c1cccc(=O)n1C2 (centres undefined), the Ki was 5.75 nM.
With c1ncc2c(n1)C1CCC(C2)N1 (centres undefined) the Ki was over 10000 nM.
Work on CN1C2C=C(c3cncnc3)CC1CC2 (stereo in doubt; 33) yielded a Ki of 43.7 nM.
CN1C2C=C(c3cncnc3)CC1CC2 (stereo in doubt; 58) gave a Ki of 1.26 nM.
With O=c1cccc2n1C[C@@H]1CNC[C@H]2C1 [CYTISINICLINE] the Ki was 0.123 nM.
c1cncc(C2CC3CCC2N3)c1 (centres undefined) [DESCHLOROEPIBATIDINE] was tested, and the Ki was 0.0257 nM.

— ChEMBL document CHEMBL1144890, “3D QSAR analyses-guided rational design of novel ligands for the (alpha4)2(beta2)3 nicotinic acetylcholine receptor” (J Med Chem, 2003)
